Results published in patent publication US20230095836A1, “SUBSTITUTED 5,6-DIPHENYL-3(2H)-PYRIDAZINONES FOR USE AS FUNGICIDES” (FMC Corporation, priority 2020, published 2023).

What was measured:
Zymoseptoria tritici = experiment: Test A: test solution sprayed on wheat seedlings, inoculated next day with Zymoseptoria tritici (wheat leaf blotch); disease rating (100 = 100% disease control, 0 = no control; dash = not tested); type: in vivo
Method in brief: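 Wheat seedlings sprayed to run-off with test solution, inoculated next day with Z. tritici spores, held 48 h at 24° C in saturated atmosphere, then 17 days at 20° C before rating. Scores are % disease control relative to controls (100 = full control, 0 = none).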

[1] = system: Puccinia recondita f. sp. tritici; experiment: Test B: test solution sprayed on wheat seedlings, inoculated next day with Puccinia recondita f. sp. tritici (wheat leaf rust); disease rating (100 = 100% disease control, 0 = no control; dash = not tested); type: in vivo
Excerpt: The resulting test suspensions were then used in Tests A-F. The test solution was sprayed to the point of run-off on wheat seedlings. […] A rating of 100 indicates 100% disease control and a rating of 0 indicates no disease control (relative to the controls). A dash (—) indicates the compound was not tested.

[2] = system: Blumeria graminis f. sp. tritici; experiment: Test C: test suspension sprayed on wheat seedlings, inoculated next day with Blumeria graminis f. sp. tritici (wheat powdery mildew); visual disease rating (100 = 100% disease control, 0 = no control; dash = not tested); type: in vivo
Method in brief: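 Wheat seedlings were sprayed to run-off with test suspension, then dusted next day with Blumeria graminis f. sp. tritici spores. After 8 days at 20 °C in a growth chamber, disease was rated visually as percent control relative to untreated controls.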

Phakopsora pachyrhizi = experiment: Test D: test solution sprayed on soybean seedlings, inoculated next day with Phakopsora pachyrhizi (Asian soybean rust); visual disease rating (100 = 100% disease control, 0 = no control; dash = not tested); type: in vivo
Method in brief: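 Compounds predissolved in acetone (3% of final volume), suspended at ppm concentrations in 50/50 acetone/water with 250 ppm PEG400, sprayed to run-off on soybean seedlings. Inoculated next day with spores, 24 h saturated atmosphere at 22 °C, then 8 days growth chamber at 22 °C; visual rating, 100 = full control.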

Botrytis cinerea = experiment: Test E: test suspension sprayed on tomato seedlings, inoculated next day with Botrytis cinerea (tomato Botrytis); visual disease rating (100 = 100% disease control, 0 = no control; dash = not tested); type: in vivo
Method in brief: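 Tomato seedlings were sprayed to run-off and inoculated next day with Botrytis cinerea spores. They were held 48 h at 20° C in saturated humidity, then 3 days at 24° C. Disease control was rated visually against controls (100 = full, 0 = none).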

Alternaria solani = experiment: Test F: test suspension sprayed on tomato seedlings, inoculated next day with Alternaria solani (tomato early blight); visual disease rating (100 = 100% disease control, 0 = no control; dash = not tested); type: in vivo
Method in brief: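 Tomato seedlings sprayed to run-off with test suspension, inoculated next day with A. solani spores, held saturated at 27° C. for 48 h, then 20° C. for 3 days. Disease visually rated as % control relative to untreated controls.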

Compound	pest or weed control at 50 ppm (Zymoseptoria tritici) [%]	pest or weed control at 50 ppm [1] [%]	pest or weed control at 50 ppm [2] [%]	pest or weed control at 50 ppm (Phakopsora pachyrhizi) [%]	pest or weed control at 50 ppm (Botrytis cinerea) [%]	pest or weed control at 50 ppm (Alternaria solani) [%]	melting point [°C]	pest or weed control at 250 ppm (Zymoseptoria tritici) [%]	pest or weed control at 250 ppm [1] [%]	pest or weed control at 250 ppm [2] [%]	pest or weed control at 250 ppm (Phakopsora pachyrhizi) [%]	pest or weed control at 250 ppm (Botrytis cinerea) [%]	pest or weed control at 250 ppm (Alternaria solani) [%]
Cc1c(-c2ccc(F)cc2Cl)c(-c2ccc(F)cc2Cl)nn(C)c1=O [Compound 44, 5,6-bis(2-chloro-4-fluorophenyl)-2,4-dimethyl-3(2H)-pyridazinone]	100	100	100	100	93	100	126 to 129	–	–	–	–	–	–
Cn1nc(-c2ccc(F)cc2Cl)c(-c2ccc(F)cc2Cl)c(C#N)c1=O [Compound 6, 5,6-bis(2-chloro-4-fluorophenyl)-2,3-dihydro-2-methyl-3-oxo-4-pyridazine-carbonitrile]	–	–	–	–	–	–	137 to 140	100	100	92	0	99	99
CCN1N=C(c2cc(OC)cc(OC)c2)C(c2c(F)cccc2F)CC1=O (stereo not drawn) [Compound 33, 5-(2,6-difluorophenyl)-6-(3,5-dimethoxyphenyl)-4,5-dihydro-2-ethyl-3(2H)-pyridazinone]	–	–	–	–	–	–	119 to 122	0	55	0	0	0	0
COc1cc(OC)c(Cl)c(-c2nn(C)c(=O)c(Cl)c2-c2ccc(F)cc2Cl)c1 [Compound 58, 4-chloro-6-(2-chloro-3,5-dimethoxyphenyl)-5-(2-chloro-4-fluorophenyl)-2-methyl-3(2H)-pyridazinone]	100	100	100	100	99	100	85 to 90	–	–	–	–	–	–
COc1cc(OC)c(Cl)c(-c2nn(C)c(=O)c(C)c2-c2ccc(F)cc2Cl)c1 [Compound 66, 6-(2-chloro-3,5-dimethoxyphenyl)-5-(2-chloro-4-fluorophenyl)-2,4-dimethyl-3(2H)-pyridazinone]	100	100	100	100	100	100	140 to 143	–	–	–	–	–	–
COc1cc(OC)c(Cl)c(-c2nn(C)c(=O)cc2-c2ccc(F)cc2Cl)c1 [Compound 25, 6-(2-chloro-3,5-dimethoxyphenyl)-5-(2-chloro-4-fluorophenyl)-2-methyl-3(2H)-pyridazinone]	100	100	98	94	100	85	121 to 125	–	–	–	–	–	–
COc1cc(OC)cc(C2=NN(C)C(=O)CC2c2c(F)cccc2F)c1 (stereo not drawn) [Compound 39, 5-(2,6-difluorophenyl)-6-(3,5-dimethoxyphenyl)-4,5-dihydro-2-methyl-3(2H)-pyridazinone]	–	–	–	–	–	–	139 to 142	98	86	69	0	99	0
COc1cc(OC)c(Cl)c(-c2nn(C)c(=O)cc2-c2c(F)cccc2F)c1 [Compound 12, 6-(2-chloro-3,5-dimethoxyphenyl)-5-(2,6-difluorophenyl)-2-methyl-3(2H)-pyridazinone]	–	–	–	–	–	–	172 to 176	100	100	100	100	99	0
COc1cc(OC)c(Cl)c(-c2nn(C)c(=O)c(Cl)c2-c2c(F)cccc2F)c1 [Compound 35, 4-chloro-6-(2-chloro-3,5-dimethoxyphenyl)-5-(2,6-difluorophenyl)-2-methyl-3(2H)-pyridazinone]	–	–	–	–	–	–	192 to 196	100	100	100	100	99	99
COc1cc(OC)cc(-c2nn(C)c(=O)cc2-c2c(F)cccc2F)c1 [Compound 38, 5-(2,6-difluorophenyl)-6-(3,5-dimethoxyphenyl)-2-methyl-3(2H)-pyridazinone]	–	–	–	–	–	–	132 to 136	98	99	81	0	98	0
COc1cc(OC)cc(-c2nn(C)c(=O)c(Cl)c2-c2c(F)cccc2F)c1 [Compound 36, 4-chloro-5-(2,6-difluorophenyl)-6-(3,5-dimethoxyphenyl)-2-methyl-3(2H)-pyridazinone]	–	–	–	–	–	–	150 to 154	100	100	99	93	100	99
COc1cc(-c2nn(C)c(=O)cc2-c2c(F)cccc2F)cc(OC)c1Cl [Compound 14, 6-(4-chloro-3,5-dimethoxyphenyl)-5-(2,6-difluorophenyl)-2-methyl-3(2H)-pyridazinone]	–	–	–	–	–	–	221 to 225	88	80	0	0	0	0
COc1cc(OC)c([N+](=O)[O-])c(-c2nn(C)c(=O)c(Cl)c2-c2c(F)cccc2F)c1 [Compound 37, 4-chloro-5-(2,6-difluorophenyl)-6-(3,5-dimethoxy-2-nitrophenyl)-2-methyl-3(2H)-pyridazinone]	–	–	–	–	–	–	223 to 227	99	100	98	100	99	99
COc1cc(OC)cc(-c2nn(C)c(=O)c(Br)c2-c2c(F)cccc2F)c1 [Compound 34, 4-bromo-5-(2,6-difluorophenyl)-6-(3,5-dimethoxyphenyl)-2-methyl-3(2H)-pyridazinone]	–	–	–	–	–	–	153 to 157	100	89	95	99	99	99
COc1ccc(Cl)c(-c2nn(C)c(=O)c(C)c2-c2ccc(F)cc2Cl)c1 [Compound 102, 5-(2-chloro-4-fluorophenyl)-6-(2-chloro-5-methoxyphenyl)-2,4-dimethyl-3(2H)-pyridazinone]	100	100	100	100	98	100	149 to 150	–	–	–	–	–	–
